How the values were obtained:
Assay type in all cases: in vivo
[1] = test system: Pseudoplusia includens; assay: Example B9: Pseudoplusia includens (soybean looper), larvicide, feeding/contact, soybean plants; conditions: Chrysodeixis includens; for percent effect (mortality or growth inhibition) at 50 ppm: 120 h, L2 larvae, 5 days after infestation, read-out: effect in at least one of the two categories (mortality or growth inhibition)
Protocol: Soybean plants were treated in a spray chamber, cut off and placed into petri dishes containing wet filter paper. 1d after application leaves were infested with 5 L2 larvae and covered with a fabric filter and plastic lids. 5 days after infestation the samples were assessed for mortality and growth inhibition. The following compounds gave an effect of at least 80% in at least one of the two categories (mortality or growth inhibition) at an application rate of 50 ppm: […]

[2] = test system: Diabrotica balteata; assay: Example B2: activity against Diabrotica balteata (corn root worm), maize sprouts; conditions: 96 h, L2 larvae, 4 days after infestation, read-out: effect in at least one of the two categories (mortality or growth inhibition)
In short: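 Maize sprouts on agar were sprayed with aqueous test solutions made from 10′000 ppm DMSO stocks, dried, then infested with 6–10 L2 larvae per well. Mortality and growth inhibition were scored against untreated samples 4 days after infestation, at an application rate of 200 ppm.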

[3] = test system: Plutella xylostella; assay: Example B5: activity against Plutella xylostella (diamond back moth), artificial diet, eggs; conditions: 192 h, 8 days after infestation, read-out: effect in at least one of the two categories (mortality or growth inhibition)
In short: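 Artificial diet in 24-well plates was treated with aqueous dilutions of DMSO stocks, dried, then infested with Plutella eggs. Mortality and growth inhibition were scored against untreated samples 8 days after infestation; application rate 200 ppm.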

[4] = test system: Myzus persicae; assay: Example B7b: Myzus persicae feeding/contact activity, eggplant leaf discs; conditions: foliar, 144 h, mixed ages, 6 days after infestation
Protocol: Eggplant leaf discs were placed onto agar in a 24-well microtiter plate and sprayed with aqueous test solutions prepared from 10′000 ppm DMSO stock solutions. After drying, the leaf discs were infested with an aphid population of mixed ages. The samples were assessed for mortality 6 days after infestation.

[5] = test system: Chilo suppressalis; assay: Example B1: activity against Chilo suppressalis (striped rice stemborer), artificial diet; conditions: 144 h, 200 ppm, L2 larvae, 6 days after infestation, read-out: control (at least one of mortality, anti-feedant effect, growth inhibition)
In short: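 Diet-incorporation surface assay: aqueous dilutions of 10'000 ppm DMSO stock applied to artificial diet, dried; 6-8 L2 larvae/well; read day 6 post-infestation for mortality, antifeedant effect, growth inhibition vs untreated. Active if any category above untreated.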

[6] = test system: Myzus persicae; assay: Example B4: activity against Myzus persicae (green peach aphid), intrinsic activity; conditions: 120 h, test rate 12 ppm, 5 days after infestation
In short: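 Compounds from 10′000 ppm DMSO stocks were mixed into sucrose solution in 24-well plates sealed with Parafilm. Aphid-infested pea seedlings were set on the membrane and the plate inverted so aphids fed through it. Mortality scored 5 days after infestation.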

[7] = test system: Spodoptera littoralis; assay: Example B6: activity against Spodoptera littoralis (Egyptian cotton leaf worm), cotton leaf discs; conditions: foliar, 72 h, 200 ppm, L1 larvae, 3 days after infestation, read-out: control (at least one of mortality, anti-feedant effect, growth inhibition)
In short: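 Leaf discs on agar; spray, aqueous dilution of 10′000 ppm DMSO stock; dry; 5 L1 larvae/disc. Read at 3 d post-infestation: mortality, antifeedant, growth inhibition vs untreated. Control = ≥1 category above untreated.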

[8] = test system: Euschistus heros; assay: Example B3: activity against Euschistus heros (neotropical brown stink bug), soybean leaves; conditions: for percent effect (mortality or growth inhibition) at 200 ppm: 120 h, N2 nymphs, 5 days after infestation, read-out: effect in at least one of the two categories (mortality or growth inhibition)
Protocol: Soybean leaves on agar in 24-well microtiter plates were sprayed with aqueous test solutions prepared from 10′000 ppm DMSO stock solutions. After drying the leaves were infested with N2 nymphs. The samples were assessed for mortality and growth inhibition in comparison to untreated samples 5 days after infestation. The following compounds gave an effect of at least 80% in at least one of the two categories (mortality or growth inhibition) at an application rate of 200 ppm: […]

[9] = test system: Plutella xylostella; assay: B14b: Plutella xylostella (diamond back moth), larvicide L3, feeding/contact, Chinese cabbage
Text: Activity of compounds P5, P17 and P21 according to the preparatory examples and of a compound from WO 21/083936 against Spodoptera littoralis (Example B6 above), Chilo suppressalis (Example B1 above), Diabrotica balteata (Example B14a below), Plutella xylostella (Example B14b below) and Pseudoplusia includens (Example B9 above) is summarized in Table B14. B14a: Diabrotica balteata (Corn root worm). Larvicide, feeding/contact 3 Corn seedlings were placed on wetted filter paper in plastic cups, and 3 ml of diluted test solutions were pipetted onto them. The cups were infested with 10 L2 larvae and checked for mortality and growth regulation 5 days after treatment. B14b: Plutella xylostella (Diamond back moth). Larvicide L3, feeding/contact Chinese cabbage plants were sprayed with diluted test solutions in an application chamber. Cut off leaves were placed into petri dishes with wetted filter paper and infested 1 day after application with 10 L3 larvae. Samples were assessed 4 days after infestation for mortality and growth regulation.

Work on `C[C@H](Nc1ncnc2c(C(F)(F)F)cc(Cl)cc12)c1ncnn1-c1cc(C(=O)N(C)C)ncn1` [Compound P30, 6-[5-[(1S)-1-[[6-chloro-8-(trifluoromethyl)quinazolin-4-yl]amino]ethyl]-1,2,4-triazol-1-yl]-N,N-dimethyl-pyrimidine-4-carboxamide] yielded a percent effect (mortality or growth inhibition) at 50 ppm [1] of no less than 80%, a percent effect (mortality or growth inhibition) at 200 ppm [2] of no less than 80% and a percent effect (mortality or growth inhibition) at 200 ppm [3] of no less than 80%. The mortality at 200 ppm [4] was no less than 80%, the percent control (mortality, anti-feedant effect or growth inhibition) at 200 ppm [5] was no less than 80% and the mortality at 12 ppm [6] was no less than 80%. The percent control (mortality, anti-feedant effect or growth inhibition) at 200 ppm [7] was no less than 80%.

Molecule `CCN(C)C(=O)c1cc(-n2ncnc2[C@H](C)Nc2ncnc3c(C(F)(F)F)cc(Cl)cc23)ncn1` [Compound P31, 6-[5-[(1S)-1-[[6-chloro-8-(trifluoromethyl)quinazolin-4-yl]amino]ethyl]-1,2,4-triazol-1-yl]-N-ethyl-N-methyl-pyrimidine-4-carboxamide] has a percent effect (mortality or growth inhibition) at 50 ppm [1] of no less than 80%, a percent effect (mortality or growth inhibition) at 200 ppm [2] of no less than 80% and a percent effect (mortality or growth inhibition) at 200 ppm [3] of no less than 80%. For the same molecule, the mortality at 200 ppm [4] was no less than 80%, the percent control (mortality, anti-feedant effect or growth inhibition) at 200 ppm [5] was no less than 80% and the mortality at 12 ppm [6] was no less than 80%. For the same molecule, the percent control (mortality, anti-feedant effect or growth inhibition) at 200 ppm [7] was no less than 80%.

`C[C@H](Nc1ncnc2c(C(F)(F)F)cc(Cl)cc12)c1ncnn1-c1cc(C(=O)NCC#N)ncn1` [Compound P38, 6-[5-[(1S)-1-[[6-chloro-8-(trifluoromethyl)quinazolin-4-yl]amino]ethyl]-1,2,4-triazol-1-yl]-N-(cyanomethyl)pyrimidine-4-carboxamide] was tested, and the percent effect (mortality or growth inhibition) at 50 ppm [1] was no less than 80%, the percent effect (mortality or growth inhibition) at 200 ppm [2] was no less than 80% and the percent effect (mortality or growth inhibition) at 200 ppm [8] was no less than 80%. The percent effect (mortality or growth inhibition) at 200 ppm [3] was no less than 80%, the mortality at 200 ppm [4] was no less than 80% and the percent control (mortality, anti-feedant effect or growth inhibition) at 200 ppm [5] was no less than 80%. The mortality at 12 ppm [6] was no less than 80% and the percent control (mortality, anti-feedant effect or growth inhibition) at 200 ppm [7] was no less than 80%.

`C[C@@H](c1ncnn1-c1cc(C(=O)NCC#N)ncn1)N(C)c1ncnc2c(C(F)(F)F)cc(Cl)cc12` [Compound P52, 6-[5-[(1S)-1-[[6-chloro-8-(trifluoromethyl)quinazolin-4-yl]-methyl-amino]ethyl]-1,2,4-triazol-1-yl]-N-(cyanomethyl)pyrimidine-4-carboxamide] showed a percent effect (mortality or growth inhibition) at 50 ppm [1] of no less than 80%, a percent effect (mortality or growth inhibition) at 200 ppm [2] of no less than 80% and a percent effect (mortality or growth inhibition) at 200 ppm [8] of no less than 80%. For the same molecule, the percent effect (mortality or growth inhibition) at 200 ppm [3] was no less than 80%, the mortality at 200 ppm [4] was no less than 80% and the percent control (mortality, anti-feedant effect or growth inhibition) at 200 ppm [5] was no less than 80%. It also gave a mortality at 12 ppm [6] of no less than 80% and a percent control (mortality, anti-feedant effect or growth inhibition) at 200 ppm [7] of no less than 80%.

In the case of `CCN(C)C(=O)c1cc(-n2ncnc2[C@H](C)N(C)c2ncnc3c(C(F)(F)F)cc(Cl)cc23)ncn1` [Compound P55, 6-[5-[(1S)-1-[[6-chloro-8-(trifluoromethyl)quinazolin-4-yl]-methyl-amino]ethyl]-1,2,4-triazol-1-yl]-N-ethyl-N-methyl-pyrimidine-4-carboxamide], the percent effect (mortality or growth inhibition) at 50 ppm [1] is reported as no less than 80%, the percent effect (mortality or growth inhibition) at 200 ppm [2] is reported as no less than 80% and the percent effect (mortality or growth inhibition) at 200 ppm [8] is reported as no less than 80%. For the same molecule, the percent effect (mortality or growth inhibition) at 200 ppm [3] was no less than 80%, the mortality at 200 ppm [4] was no less than 80% and the percent control (mortality, anti-feedant effect or growth inhibition) at 200 ppm [5] was no less than 80%. The mortality at 12 ppm [6] was no less than 80% and the percent control (mortality, anti-feedant effect or growth inhibition) at 200 ppm [7] was no less than 80%.

Work on `C[C@H](Nc1ncnc2c(S(=O)(=O)C(F)(F)F)cc(Cl)cc12)c1ncnn1-c1cc(C(N)=O)ncn1` [Compound P59, 6-[5-[(1S)-1-[[6-chloro-8-(trifluoromethylsulfonyl)quinazolin-4-yl]amino]ethyl]-1,2,4-triazol-1-yl]pyrimidine-4-carboxamide] yielded a percent effect (mortality or growth inhibition) at 200 ppm [2] of no less than 80%, a percent effect (mortality or growth inhibition) at 200 ppm [8] of no less than 80% and a percent effect (mortality or growth inhibition) at 200 ppm [3] of no less than 80%. It also gave a mortality at 200 ppm [4] of no less than 80%, a percent control (mortality, anti-feedant effect or growth inhibition) at 200 ppm [5] of no less than 80% and a mortality at 12 ppm [6] of no less than 80%. For the same molecule, the percent control (mortality, anti-feedant effect or growth inhibition) at 200 ppm [7] was no less than 80%.

With `CNC(=O)c1cc(-n2ncnc2[C@H](C)N(C)c2ncnc3c(S(=O)(=O)C(F)(F)F)cc(Cl)cc23)ncn1` [Compound P61] the percent effect (mortality or growth inhibition) at 50 ppm [1] was no less than 80%, the percent effect (mortality or growth inhibition) at 200 ppm [2] was no less than 80% and the percent effect (mortality or growth inhibition) at 200 ppm [8] was no less than 80%. It also gave a percent effect (mortality or growth inhibition) at 200 ppm [3] of no less than 80%, a mortality at 200 ppm [4] of no less than 80% and a percent control (mortality, anti-feedant effect or growth inhibition) at 200 ppm [5] of no less than 80%. It also gave a mortality at 12 ppm [6] of no less than 80% and a percent control (mortality, anti-feedant effect or growth inhibition) at 200 ppm [7] of no less than 80%.

Work on `C[C@H](Nc1ncnc2c(C(F)(F)F)cc(Cl)cc12)c1ncnn1-c1cc(C(=O)N(C)C2CC2)ncn1` [Compound P63, 6-[5-[(1S)-1-[[6-chloro-8-(trifluoromethyl)quinazolin-4-yl]amino]ethyl]-1,2,4-triazol-1-yl]-N-cyclopropyl-N-methyl-pyrimidine-4-carboxamide] yielded a percent effect (mortality or growth inhibition) at 200 ppm [2] of no less than 80%, a percent effect (mortality or growth inhibition) at 200 ppm [8] of no less than 80% and a percent effect (mortality or growth inhibition) at 200 ppm [3] of no less than 80%. For the same molecule, the mortality at 200 ppm [4] was no less than 80%, the percent control (mortality, anti-feedant effect or growth inhibition) at 200 ppm [5] was no less than 80% and the mortality at 12 ppm [6] was no less than 80%. For the same molecule, the percent control (mortality, anti-feedant effect or growth inhibition) at 200 ppm [7] was no less than 80%.

`C[C@@H](c1ncnn1-c1cc(C(N)=O)ncn1)N(C)c1ncnc2c(S(=O)(=O)C(F)(F)F)cc(Cl)cc12` [Compound P67, 6-[5-[(1S)-1-[[6-chloro-8-(trifluoromethylsulfonyl)quinazolin-4-yl]-methyl-amino]ethyl]-1,2,4-triazol-1-yl]pyrimidine-4-carboxamide] was tested, and the percent effect (mortality or growth inhibition) at 200 ppm [2] was no less than 80%, the percent effect (mortality or growth inhibition) at 200 ppm [8] was no less than 80% and the percent effect (mortality or growth inhibition) at 200 ppm [3] was no less than 80%. It also gave a mortality at 200 ppm [4] of no less than 80%, a percent control (mortality, anti-feedant effect or growth inhibition) at 200 ppm [5] of no less than 80% and a mortality at 12 ppm [6] of no less than 80%. For the same molecule, the percent control (mortality, anti-feedant effect or growth inhibition) at 200 ppm [7] was no less than 80%.

Molecule `C[C@@H](c1ncnn1-c1cc(C(=O)N(C)C)ncn1)N(C)c1ncnc2c(C(F)(F)F)cc(Cl)cc12` [Compound P82, 6-[5-[(1S)-1-[[6-chloro-8-(trifluoromethyl)quinazolin-4-yl]-methyl-amino]ethyl]-1,2,4-triazol-1-yl]-N,N-dimethyl-pyrimidine-4-carboxamide] has a percent effect (mortality or growth inhibition) at 200 ppm [2] of no less than 80%, a percent effect (mortality or growth inhibition) at 200 ppm [3] of no less than 80% and a mortality at 200 ppm [4] of no less than 80%. The mortality at 12 ppm [6] was no less than 80% and the percent control (mortality, anti-feedant effect or growth inhibition) at 200 ppm [7] was no less than 80%.

For `C[C@H](Nc1ncnc2c(Cl)cc(C(F)(F)F)cc12)c1ncnn1-c1ncccn1` [WO 21/083936 P.18, reference compound], the mortality at 3 ppm ([1]; Pseudoplusia includens) was 40%, the mortality at 200 ppm [8] was 0% and the mortality at 0.8 ppm [9] was 65%.

Work on `C[C@H](Nc1ncnc2c(C(F)(F)F)cc(Cl)cc12)c1ncnn1-c1ncccn1` [WO 21/083936 P.24, reference compound] yielded a mortality at 0.8 ppm ([1]; Pseudoplusia includens, 0.8 ppm) of 0%, a mortality at 200 ppm [8] of 0% and a mortality at 0.8 ppm [9] of 5%.

`CC(Nc1ncnc2c(Br)cc(Br)cc12)c1ncnn1-c1ncccn1` (stereo not drawn) [WO 21/083936 P.29, reference compound] was tested, and the mortality at 3 ppm ([1]; Pseudoplusia includens) was 30%, the mortality at 200 ppm [8] was 0% and the mortality at 3 ppm ([9]; 3 ppm) was 60%.
